Our source for the EC50 values is BindingDB's records for doi:10.1021/acs.jmedchem.6b01578 (University of Bologna, 2017).

A short description of this assay: Agonist activity at recombinant human CB1 receptor expressed in CHO-K1 cells assessed as increase in cAMP accumulation after 20 mins by HTRF assay.

Where “and” joins values, the source holds several entries; their conditions need not be identical. Identical values can stand only once.

As to `CCCCCc1cc(O)c2c(c1)OC(C)(C)[C@@H]1CCC(C)=C[C@@H]21` [(10R,10aR)-6,6,9-Trimethyl-3-pentyl-6a,7,8,10a-tetrahydro-6H-benzo[c]chromen-1-ol], the EC50 was 10 nM. As for `COc1cc(OC(=O)NCCCCN2CCN(c3cccc(Cl)c3Cl)CC2)ccc1-c1ccccc1`, the EC50 was 220 nM and 219 nM. `CCCC(C)(C)c1ccc2c(c1)OC(C)(C)[C@@H]1CCC(C)=C[C@@H]21`: the EC50 amounted to 667 nM. To `COc1ccccc1N1CCN(CCCCNC(=O)Oc2ccc3c(c2)[nH]c2ccccc23)CC1` belongs 2300 nM and 2340 nM; to `CCCCCCC(C)(C)c1ccc2c(c1)OC(C)(C)[C@@H]1CCC(CO)=C[C@@H]21`, 1.2 nM.
